Target: T1, hMAGL (Homo sapiens, UniProt Q99685)
T1 sequence (Q99685 1-303): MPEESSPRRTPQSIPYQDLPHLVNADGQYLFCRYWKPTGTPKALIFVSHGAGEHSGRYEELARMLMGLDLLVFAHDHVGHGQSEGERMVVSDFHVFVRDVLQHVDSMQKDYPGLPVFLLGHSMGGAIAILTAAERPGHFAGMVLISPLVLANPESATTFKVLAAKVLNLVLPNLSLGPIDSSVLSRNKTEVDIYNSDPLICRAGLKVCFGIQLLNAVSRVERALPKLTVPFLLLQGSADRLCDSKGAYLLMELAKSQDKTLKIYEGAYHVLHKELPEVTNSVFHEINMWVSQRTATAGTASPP
Test: 2-AG assay: MAGL inhibition, hydrolysis of 2-arachidonoylglycerol to arachidonic acid followed by mass spectrometry
Assay type: biochemical
Outline: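 Read-out is LC-MS/MS of arachidonic acid released from 2-arachidonoylglycerol (8 μM final), normalised to d8-arachidonic acid internal standard after acetonitrile quench. Enzyme […] and compound were pre-mixed 15 min, then reacted 30 min, both at RT, in Tris/EDTA buffer with 0.01% Tween-20 and 2.5% DMSO.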

SMILES	IC50 [nM]
CC(C)(C)n1nccc1CN1CC2(C1)CN(C(=O)N1CC3(CC(n4cnc(C(F)(F)F)n4)C3)C1)C2 [Example 275, [6-[(2-tert-butylpyrazol-3-yl)methyl]-2,6-diazaspiro[3.3]heptan-2-yl]-[6-[3-(trifluoromethyl)-1,2,4-triazol-1-yl]-2-azaspiro[3.3]heptan-2-yl]methanone]	132
O=C(N1CC2(CC(n3cnc(C4CC4)n3)C2)C1)N1CC2(CN(Cc3conc3C(F)(F)F)C2)C1 [Example 219, [6-(3-cyclopropyl-1,2,4-triazol-1-yl)-2-azaspiro[3.3]heptan-2-yl]-[6-[[3-(trifluoromethyl)isoxazol-4-yl]methyl]-2,6-diazaspiro[3.3]heptan-2-yl]methanone]	8.82
O=C(N1CC2(CCN(Cc3cc(C(F)(F)F)no3)CC2)C1)N1CC2(CC(n3cnc(C4CC4)n3)C2)C1 [Example 329, [6-(3-cyclopropyl-1,2,4-triazol-1-yl)-2-azaspiro[3.3]heptan-2-yl]-[7-[[3-(trifluoromethyl)isoxazol-5-yl]methyl]-2,7-diazaspiro[3.5]nonan-2-yl]methanone]	13.9
O=C(N1CC2(CC(Cc3cnn(CC(F)(F)F)n3)C2)C1)N1CC2(CC(n3cnc(C(F)(F)F)n3)C2)C1 [Example 340, [6-[[2-(2,2,2-trifluoroethyl)triazol-4-yl]methyl]-2-azaspiro[3.3]heptan-2-yl]-[6-[3-(trifluoromethyl)-1,2,4-triazol-1-yl]-2-azaspiro[3.3]heptan-2-yl]methanone]	3.62
O=C(N1CC2(CC(Cn3ccc(C(F)(F)F)n3)C2)C1)N1CC2(CC(n3cnc(C4(O)CC4)n3)C2)C1 [Example 293, [6-[3-(1-hydroxycyclopropyl)-1,2,4-triazol-1-yl]-2-azaspiro[3.3]heptan-2-yl]-[6-[[3-(trifluoromethyl)pyrazol-1-yl]methyl]-2-azaspiro[3.3]heptan-2-yl]methanone]	5.1
O=C(N1CC2(CC(n3cnc(C(F)(F)F)n3)C2)C1)N1CC2(CN(Cc3cc(C4CCC4)[nH]n3)C2)C1 [Example 273, [6-[(5-cyclobutyl-1H-pyrazol-3-yl)methyl]-2,6-diazaspiro[3.3]heptan-2-yl]-[6-[3-(trifluoromethyl)-1,2,4-triazol-1-yl]-2-azaspiro[3.3]heptan-2-yl]methanone]	12
O=C(N1CC2(CC(n3cnc(C(F)(F)F)n3)C2)C1)N1CC2(CN(Cc3nc(C(F)(F)F)co3)C2)C1 [Example 216]	102
CS(=O)(=O)c1cnn(CC2CC3(C2)CN(C(=O)N2CC4(CC(n5cnc(C(F)(F)F)n5)C4)C2)C3)c1 [Example 327, [6-[(4-mesylpyrazol-1-yl)methyl]-2-azaspiro[3.3]heptan-2-yl]-[6-[3-(trifluoromethyl)-1,2,4-triazol-1-yl]-2-azaspiro[3.3]heptan-2-yl]methanone]	22.2
Cn1ncc(C(F)(F)F)c1CC1CC2(C1)CN(C(=O)N1CC3(CC(n4cnc(C5(O)CC5)n4)C3)C1)C2 [Example 3]	2.21
CCn1nc(C(F)(F)F)cc1CN1CC2(C1)CN(C(=O)N1CC3(CC(n4cnc(C5(O)CC5)n4)C3)C1)C2 [Example 168, [6-[[2-ethyl-5-(trifluoromethyl)pyrazol-3-yl]methyl]-2,6-diazaspiro[3.3]heptan-2-yl]-[6-[3-(1-hydroxycyclopropyl)-1,2,4-triazol-1-yl]-2-azaspiro[3.3]heptan-2-yl]methanone]	45.6
CC(C)(C)c1csc(CN2CC3(C2)CN(C(=O)N2CC4(CC(n5cnc(C6(O)CC6)n5)C4)C2)C3)n1 [Example 199, [6-[(4-tert-butylthiazol-2-yl)methyl]-2,6-diazaspiro[3.3]heptan-2-yl]-[6-[3-(1-hydroxycyclopropyl)-1,2,4-triazol-1-yl]-2-azaspiro[3.3]heptan-2-yl]methanone]	6.7

From patent US20260374756A1, “HETEROCYCLIC COMPOUNDS AS INHIBITORS OF MONOACYLGLYCEROL LIPASE (MAGL)” (Hoffmann-La Roche Inc., priority 2022, published 2026)
